13 compounds from publication PMC6024778 (Viruses, 2018) can be followed below.

Series [1] concerns MERS-CoV. Put plainly: microbe, parasite or virus in culture. Type of series: cell-based.
In series [2] the test system is Huh-7 cells.
Series [3] in a line: in vitro. Conditions: human.
Series [4] has as its system MERS-CoV nucleocapsid (N) protein. Type of series: cell-based.
The subject of series [5] is MERS-CoV. Type of series: cell-based.
The test system of series [6] is rMERS-CoV. Put plainly: microbe, parasite or virus in culture. Type of series: cell-based, MERS-CoV. Conditions: Middle East respiratory syndrome-related coronavirus, Huh-7, 72 h.
Series [7] is described as follows: in vitro. The note with it: cat.
Series [8] has as its system MERS-CoV. Type of series: cell-based. The source holds these as a separate data set.
The test system of series [9] is Feline infectious peritonitis virus (FIPV). Put plainly: microbe, parasite or virus in culture. Type of series: cell-based. The note with it: Alphacoronavirus 1.
Series [10] has as its system MERS-CoV. Type of series: cell-based. The source holds these as a separate data set.
The test system of series [11] is MERS-CoV. Type of series: cell-based. The source holds these as a separate data set.
The subject of series [12] is HCoV-229E. Put plainly: microbe, parasite or virus in culture. Type of series: cell-based. The note with it: Human coronavirus 229E.
In series [13] the test system is MERS-CoV. Type of series: cell-based. This is another data set of the same source.
In series [14] the test system is HCoV-OC43. Put plainly: microbe, parasite or virus in culture. Type of series: cell-based, betacoronavirus OC43 strain. The note with it: Betacoronavirus 1, OC43.
Setting [15] is: Middle East respiratory syndrome-related coronavirus, Huh-7, 72 h.

Structures are written as SMILES. Structures can show the parent of a compound that is named as a salt. Where two headings read alike, the source gives them in different places.

For the compound `CC(=O)c1ccc2c(c1)N(CCCN1CCN(CCO)CC1)c1ccccc1S2` [Acetophenazine maleate], in series [1] (read-out: EC50), the EC50 was 11.2 ± 5 µM. This compound also showed a CC50 in series [2] of 23.6 ± 3.8 µM.

For `CCN(CC)Cc1cc(Nc2ccnc3cc(Cl)ccc23)ccc1O` [Amodiaquine dihydrochloride dehydrate], the EC50 in series [1] (read-out: EC50) worked out at 2.4 ± 0.7 µM.

In the case of `CCN(CC)Cc1cc(Nc2ccnc3cc(Cl)ccc23)ccc1O` [Amodiaquine dihydrochloride], the EC50 in [1] (read-out: EC50) is 2.1 ± 0.7 µM.

`CCN(CC)CCCC(C)Nc1ccnc2cc(Cl)ccc12` (stereo not shown) [Chloroquine diphosphate] gave an EC50 in series [1] (setting [15]) of 12 ± 3 µM. In addition, the CC50 in series [3] is over 50 µM.

With `CN(C)CC/C=C1\c2ccccc2CSc2ccccc21` [Dosulepin hydrochloride], the EC50 in [1] (setting [15]) came to 3.4 µM. In series [3], this compound displayed a CC50 of 28.9 µM.

The compound `Nc1ccn([C@@H]2O[C@H](CO)[C@@H](O)C2(F)F)c(=O)n1` [Gemcitabine, gemcitabine hydrochloride] yielded an EC50 in series [1] (setting [15]) of 1.2 µM. In addition, in [4], the “viral N protein expression” value is on record as “completely abolished”. The “production of infectious MERS-CoV particles” value in series [5] is reported as “completely abolished”.

As for `CCN(CCO)CCCC(C)Nc1ccnc2cc(Cl)ccc12` (stereo not shown) [Hydroxychloroquine sulfate], the EC50 in series [1] (setting [15]) is 13.3 ± 2.1 µM. In addition, the CC50 in [3] was over 50 µM.

Consider `OCCOCCN1CCN(C(c2ccccc2)c2ccc(Cl)cc2)CC1` (stereo not shown) [Hydroxyzine pamoate], for which the EC50 in series [1] (setting [15]) turned out to be 14.4 ± 3.4 µM. The CC50 in series [3] was over 50 µM.

Consider `COc1ccc2c(c1)N(C[C@H](C)CN(C)C)c1ccccc1S2` [Methotrimeprazine maleate salt], for which, in series [1] (read-out: EC50), the EC50 came out at 2.5 µM. This compound also had a CC50 in series [2] of 24.5 µM.

In the case of `O=C(Nc1ccncc1)c1cc([N+](=O)[O-])ccc1Cl` [N1-(4-pyridyl)-2-chloro-5-nitrobenzamide], it took 10.5 ± 0.3 µM to reach a half-maximal effect in series [1] (setting [15]) (EC50). In series [3], this compound displayed a CC50 of over 50 µM.

In series [1] (setting [15]), `COc1ccc(C2=N[C@@H](c3ccc(Cl)cc3)[C@@H](c3ccc(Cl)cc3)N2C(=O)N2CCNC(=O)C2)c(OC(C)C)c1` [Nutlin-3] had an EC50 of 6.9 ± 1.4 µM. This compound gave a CC50 in series [3] of 26.8 ± 1.6 µM.

Take `CN1CCN(CCOc2cc(OC3CCOCC3)c3c(Nc4c(Cl)ccc5c4OCO5)ncnc3c2)CC1` [Saracatinib]: the EC50 in series [6] stood at 9.3 µM; in series [9], 7 µM; in [1] (setting [15]), 2.9 ± 0.6 µM; in series [12] it was 2.4 µM; in [14], 5.1 µM. The figures for the CC50 in series [7] and in series [2] (human) were over 50 µM and 57 ± 5.5 µM, respectively. The “intracellular viral genomic (ORF1a) and mRNA (upE) syntheses” value in [8] is recorded as “near complete inhibition”. Moreover, the “selectivity index (SI)” value in series [1] is recorded as over 17. Further, the “reduction in infectious virus titers” value in series [10] is ~ 80%. In series [11], the “intracellular viral genomic RNA and mRNA expressions” value was “significant decrease”. Moreover, the “syntheses of intracellular viral genomic RNA and mRNAs” value in [11] is recorded as “severely affected”. Also, the “viral genomic RNA and mRNA syntheses” value in series [11] is on record as “near complete inhibition”. In series [5], the “reduction of viral titer” value is given as “marginal reduction”. The “antiviral activity (viral titer)” value in series [13] is “less effective”. The “reduction of MERS-CoV titer” value in series [13] is listed as “more pronounced”. For the same compound, the viral titer result in series [13] is reported as “marked reduction”.

In turn, `CN1CCN(c2nc(C3=C(c4c[nH]c5ccccc45)C(=O)NC3=O)c3ccccc3n2)CC1` [Sotrastaurin] returned a concentration for a half-maximal effect (EC50) in series [1] (setting [15]) of about 9.7 µM. In addition, the CC50 in [3] was over 50 µM.

One may read the EC50 as the concentration at which the effect is half-maximal.
